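Method: 48-hour compound exposure of cells in 96-well plates, five concentrations, linear interpolation of endpoints. TGI is the concentration that stops growth completely.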
Tests used:
Assay in all cases: NCI-60 cell line screen, 48 h
HCT-15 colon = system: HCT-15 colon
UACC-62 melanoma = system: UACC-62 melanoma
A498 renal = system: A498 renal
CAKI-1 renal = system: CAKI-1 renal
EKVX NSCLC = system: EKVX NSCLC
NCI-H522 lung = system: NCI-H522 lung
SF-295 CNS = system: SF-295 CNS
HOP-92 NSCLC = system: HOP-92 NSCLC
SK-MEL-5 melanoma = system: SK-MEL-5 melanoma
NCI-H460 lung = system: NCI-H460 lung
TK-10 renal = system: TK-10 renal
UO-31 renal = system: UO-31 renal
MDA-MB-231 breast = system: MDA-MB-231 breast
HS 578T breast = system: HS 578T breast
ACHN renal = system: ACHN renal
SF-268 CNS = system: SF-268 CNS
IGROV1 ovarian = system: IGROV1 ovarian
RPMI-8226 leukemia = system: RPMI-8226 leukemia
COLO 205 colon = system: COLO 205 colon
U251 CNS = system: U251 CNS
UACC-257 melanoma = system: UACC-257 melanoma
HOP-62 NSCLC = system: HOP-62 NSCLC
SF-539 CNS = system: SF-539 CNS
NCI-H226 lung = system: NCI-H226 lung
OVCAR-3 ovarian = system: OVCAR-3 ovarian
SN12C renal = system: SN12C renal
T-47D breast = system: T-47D breast
M14 melanoma = system: M14 melanoma
PC-3 prostate = system: PC-3 prostate
LOX IMVI melanoma = system: LOX IMVI melanoma
SK-MEL-2 melanoma = system: SK-MEL-2 melanoma
A549 NSCLC = system: A549 NSCLC
NCI/ADR-RES ovarian = system: NCI/ADR-RES ovarian
SNB-19 CNS = system: SNB-19 CNS
MOLT-4 leukemia = system: MOLT-4 leukemia
NCI-H23 lung = system: NCI-H23 lung
HCC-2998 colon = system: HCC-2998 colon
SR leukemia = system: SR leukemia
DU-145 prostate = system: DU-145 prostate
MDA-N = system: MDA-N
SW-620 colon = system: SW-620 colon
786-0 renal = system: 786-0 renal
HCT-116 colon = system: HCT-116 colon
KM12 colon = system: KM12 colon
BT-549 breast = system: BT-549 breast
SK-OV-3 ovarian = system: SK-OV-3 ovarian
SK-MEL-28 melanoma = system: SK-MEL-28 melanoma
RXF 393 renal = system: RXF 393 renal
MALME-3M melanoma = system: MALME-3M melanoma
CCRF-CEM leukemia = system: CCRF-CEM leukemia
OVCAR-8 ovarian = system: OVCAR-8 ovarian
MDA-MB-435 = system: MDA-MB-435
K-562 leukemia = system: K-562 leukemia
MCF7 breast = system: MCF7 breast
HL-60(TB) leukemia = system: HL-60(TB) leukemia
HT29 colon = system: HT29 colon
OVCAR-4 ovarian = system: OVCAR-4 ovarian
SNB-75 CNS = system: SNB-75 CNS
OVCAR-5 ovarian = system: OVCAR-5 ovarian

## CCN(CC)c1ncnc2c1ncn2CCNC(CO)(CO)CO
HCT-15 colon
  TGI: > 100 µM
UACC-62 melanoma
  TGI: > 100 µM
A498 renal
  TGI: > 100 µM
CAKI-1 renal
  TGI: > 100 µM
EKVX NSCLC
  TGI: > 100 µM
NCI-H522 lung
  TGI: > 100 µM
SF-295 CNS
  TGI: > 100 µM
HOP-92 NSCLC
  TGI: > 100 µM
SK-MEL-5 melanoma
  TGI: > 100 µM
NCI-H460 lung
  TGI: > 100 µM
TK-10 renal
  TGI: > 100 µM
UO-31 renal
  TGI: > 100 µM
MDA-MB-231 breast
  TGI: > 100 µM
HS 578T breast
  TGI: > 100 µM
ACHN renal
  TGI: > 100 µM
SF-268 CNS
  TGI: > 100 µM
IGROV1 ovarian
  TGI: > 100 µM
RPMI-8226 leukemia
  TGI: > 100 µM
COLO 205 colon
  TGI: > 100 µM
U251 CNS
  TGI: > 100 µM
UACC-257 melanoma
  TGI: > 100 µM
HOP-62 NSCLC
  TGI: > 100 µM
SF-539 CNS
  TGI: > 100 µM
NCI-H226 lung
  TGI: > 100 µM
OVCAR-3 ovarian
  TGI: > 100 µM
SN12C renal
  TGI: > 100 µM
T-47D breast
  TGI: > 100 µM
M14 melanoma
  TGI: > 100 µM
PC-3 prostate
  TGI: > 100 µM
LOX IMVI melanoma
  TGI: > 100 µM
SK-MEL-2 melanoma
  TGI: > 100 µM
A549 NSCLC
  TGI: > 100 µM
NCI/ADR-RES ovarian
  TGI: > 100 µM
SNB-19 CNS
  TGI: > 100 µM
MOLT-4 leukemia
  TGI: > 100 µM
NCI-H23 lung
  TGI: > 100 µM
HCC-2998 colon
  TGI: > 100 µM
SR leukemia
  TGI: > 100 µM
DU-145 prostate
  TGI: > 100 µM
MDA-N
  TGI: > 100 µM
SW-620 colon
  TGI: > 100 µM
786-0 renal
  TGI: > 100 µM
HCT-116 colon
  TGI: > 100 µM
KM12 colon
  TGI: > 100 µM
BT-549 breast
  TGI: > 100 µM
SK-OV-3 ovarian
  TGI: > 100 µM
SK-MEL-28 melanoma
  TGI: > 100 µM
RXF 393 renal
  TGI: > 100 µM
MALME-3M melanoma
  TGI: > 100 µM
CCRF-CEM leukemia
  TGI: > 100 µM
OVCAR-8 ovarian
  TGI: > 100 µM
MDA-MB-435
  TGI: > 100 µM
K-562 leukemia
  TGI: > 100 µM
MCF7 breast
  TGI: > 100 µM
HL-60(TB) leukemia
  TGI: > 100 µM
HT29 colon
  TGI: > 100 µM
OVCAR-4 ovarian
  TGI: > 100 µM
SNB-75 CNS
  TGI: > 100 µM
OVCAR-5 ovarian
  TGI: > 100 µM

## COc1ccc(C2CC(c3ccc4ccccc4c3O)=NN2)cc1OC (centres undefined)
HCT-15 colon
  TGI: > 100 µM
UACC-62 melanoma
  TGI: > 100 µM
A498 renal
  TGI: > 100 µM
CAKI-1 renal
  TGI: > 100 µM
NCI-H522 lung
  TGI: > 100 µM
SF-295 CNS
  TGI: > 100 µM
HOP-92 NSCLC
  TGI: > 100 µM
SK-MEL-5 melanoma
  TGI: > 100 µM
NCI-H460 lung
  TGI: > 100 µM
TK-10 renal
  TGI: > 100 µM
UO-31 renal
  TGI: > 100 µM
MDA-MB-231 breast
  TGI: 96 µM
HS 578T breast
  TGI: > 100 µM
ACHN renal
  TGI: > 100 µM
SF-268 CNS
  TGI: > 100 µM
IGROV1 ovarian
  TGI: > 100 µM
RPMI-8226 leukemia
  TGI: > 100 µM
COLO 205 colon
  TGI: > 100 µM
U251 CNS
  TGI: > 100 µM
UACC-257 melanoma
  TGI: > 100 µM
HOP-62 NSCLC
  TGI: > 100 µM
SF-539 CNS
  TGI: > 100 µM
NCI-H226 lung
  TGI: > 100 µM
OVCAR-3 ovarian
  TGI: > 100 µM
SN12C renal
  TGI: > 100 µM
T-47D breast
  TGI: > 100 µM
M14 melanoma
  TGI: > 100 µM
PC-3 prostate
  TGI: > 100 µM
SK-MEL-2 melanoma
  TGI: > 100 µM
A549 NSCLC
  TGI: > 100 µM
NCI/ADR-RES ovarian
  TGI: > 100 µM
MOLT-4 leukemia
  TGI: 65.4 µM
NCI-H23 lung
  TGI: > 100 µM
HCC-2998 colon
  TGI: > 100 µM
SR leukemia
  TGI: 46.3 µM
DU-145 prostate
  TGI: > 100 µM
MDA-N
  TGI: 60.8 µM
SW-620 colon
  TGI: > 100 µM
786-0 renal
  TGI: > 100 µM
HCT-116 colon
  TGI: > 100 µM
KM12 colon
  TGI: > 100 µM
BT-549 breast
  TGI: 74 µM
SK-OV-3 ovarian
  TGI: > 100 µM
SK-MEL-28 melanoma
  TGI: > 100 µM
RXF 393 renal
  TGI: > 100 µM
MALME-3M melanoma
  TGI: > 100 µM
CCRF-CEM leukemia
  TGI: 42.6 µM
OVCAR-8 ovarian
  TGI: > 100 µM
MDA-MB-435
  TGI: > 100 µM
K-562 leukemia
  TGI: 52.1 µM
MCF7 breast
  TGI: > 100 µM
HT29 colon
  TGI: > 100 µM
OVCAR-4 ovarian
  TGI: > 100 µM
SNB-75 CNS
  TGI: > 100 µM
OVCAR-5 ovarian
  TGI: > 100 µM

From PubChem BioAssay (NCI)
